Experimental data reported in patent EP4707277A1, “NOVEL HETEROCYCLIC AMINE DERIVATIVES AND PHARMACEUTICAL COMPOSITION COMPRISING SAME” (Daewoong Pharmaceutical Co., Ltd., priority 2023, dated 2024).
Where two headings read alike, the source gives them in different places.

What was measured:
BTK = target: T1, BTK (Homo sapiens, UniProt Q06187); assay: Inhibitory activity against BTK, ADP-Glo Kinase system (Promega); assay type: biochemical
T1 construct: purchased Signalchem B10-10H
Experimental: (§1) Inhibitory activities against BTK and ITK were measured for the compounds prepared in the above Examples as follows.
(§2) The inhibitory activities against BTK and ITK were evaluated using 'ADP-Glo™ Kinase system' (Promega Corporation). In the case of this evaluation method, activation was measured by quantifying the amount of ADP produced during the kinase reaction, which was utilized to measure the inhibitory activities against BTK and ITK.
(§3) Specifically, the inhibitory activities against BTK and ITK were measured using BTK kinase (Signalchem, B10-10H), ITK kinase (Signalchem, I13-11G-10), and ADP-Glo kinase assay kit (Promega, V9102). Recombinant purified human BTK and ITK were diluted with 1 x kinase reaction buffer (40 mM Tris-Cl, pH 7.5, 20 mM MgCl2, 0.1 mg/mL BSA, 2 mM MnCl2 and 50 uM DTT) and added to a 96 well plate (ITK: final concentration of 4 ng per reaction/BTK: final concentration of 10 ng per reaction). The compounds prepared in the previous Examples were treated so as to be finally a 1% DMSO aqueous solution, and a substrate cocktail containing ATP (1mM or Km ATP (BTK: 10 uM /ITK: 25uM)) and 0.2 ug/ul of Poly (Glu4,Tyr1) peptide (BTK and ITK final concentration) in the total 25 uL reactants was added to a 96-well plate to initiate enzymatic reaction. After incubation (30°C) for 1 hour, equivalent volume (25 uL per reaction) of ADP Glo was added, and incubated (30°C) for 40 minutes at room temperature. Then, a kinase detection reagent (45 uL per reaction) was added, and incubated (30°C) for 30 minutes at room temperature. The kinase activity was measured by chemiluminescence according to the instructions of ADP Glo kinase assay kit, and the inhibitory activity of the compounds according to the present disclosure was calculated. For the analysis of the results of each compound, Microsoft Excel was used, and IC50 values were calculated by GraphPad Prism software.

ITK = target: T2, ITK (Homo sapiens, UniProt Q08881); assay: Inhibitory activity against ITK, ADP-Glo Kinase system (Promega); assay type: biochemical
T2 construct: purchased Signalchem I13-11G-10
T2 sequence (Q08881 1-620): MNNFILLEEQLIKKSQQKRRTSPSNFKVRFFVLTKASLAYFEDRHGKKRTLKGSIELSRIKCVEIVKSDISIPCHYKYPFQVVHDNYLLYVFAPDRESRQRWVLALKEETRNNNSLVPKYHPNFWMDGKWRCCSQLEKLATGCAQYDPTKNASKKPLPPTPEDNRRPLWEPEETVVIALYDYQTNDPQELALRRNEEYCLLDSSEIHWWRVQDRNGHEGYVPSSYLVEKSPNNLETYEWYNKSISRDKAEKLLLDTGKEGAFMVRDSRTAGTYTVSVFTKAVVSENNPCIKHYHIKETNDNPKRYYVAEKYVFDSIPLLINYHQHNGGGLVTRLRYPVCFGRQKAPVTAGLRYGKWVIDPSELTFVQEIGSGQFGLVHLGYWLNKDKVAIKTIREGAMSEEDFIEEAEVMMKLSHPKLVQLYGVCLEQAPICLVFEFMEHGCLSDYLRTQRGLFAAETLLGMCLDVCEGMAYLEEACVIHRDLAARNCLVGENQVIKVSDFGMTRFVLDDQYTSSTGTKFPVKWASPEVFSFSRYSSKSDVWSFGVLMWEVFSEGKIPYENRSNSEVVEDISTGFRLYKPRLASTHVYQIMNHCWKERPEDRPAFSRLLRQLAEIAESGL
Experimental: as §1, §2, §3

[1] = 1mM ATP, read-out: BTK IC50(nM) 1mM ATP
[2] = 1mM ATP, read-out: ITK IC50(nM) 1mM ATP
[3] = Km ATP (BTK: 10 uM), read-out: BTK IC50(nM) Km ATP
[4] = Km ATP (ITK: 25uM), read-out: ITK IC50(nM) Km ATP

T1 sequence (Q06187 whole entry): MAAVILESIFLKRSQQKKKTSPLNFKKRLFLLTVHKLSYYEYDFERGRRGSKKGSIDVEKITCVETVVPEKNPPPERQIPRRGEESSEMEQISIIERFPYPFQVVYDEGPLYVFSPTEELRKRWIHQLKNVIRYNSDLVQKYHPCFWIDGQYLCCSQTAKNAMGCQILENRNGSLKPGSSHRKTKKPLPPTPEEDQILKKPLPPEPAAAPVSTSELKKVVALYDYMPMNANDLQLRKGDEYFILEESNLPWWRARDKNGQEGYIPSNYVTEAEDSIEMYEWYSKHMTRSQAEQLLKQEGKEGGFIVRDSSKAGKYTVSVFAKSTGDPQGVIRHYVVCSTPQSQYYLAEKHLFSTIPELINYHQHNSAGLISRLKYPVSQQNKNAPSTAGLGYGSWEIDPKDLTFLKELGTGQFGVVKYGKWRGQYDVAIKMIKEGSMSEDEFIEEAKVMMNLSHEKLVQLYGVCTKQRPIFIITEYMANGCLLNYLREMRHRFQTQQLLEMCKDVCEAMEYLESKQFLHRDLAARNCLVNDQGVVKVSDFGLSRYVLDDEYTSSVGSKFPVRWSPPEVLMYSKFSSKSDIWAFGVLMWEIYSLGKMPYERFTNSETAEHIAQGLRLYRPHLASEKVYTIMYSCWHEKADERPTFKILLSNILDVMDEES

SMILES | IC50 (BTK; [1]) [nM] | IC50 (ITK; [2]) [nM] | IC50 (BTK; [3]) [nM] | IC50 (ITK; [4]) [nM]
C=CC(=O)N1C2C=C(c3nc(Nc4ncc(C)s4)cc4c3ccn4CC3CC3)CC1CC2 (stereo not shown) [Example 39, 1-(3-(1-(cyclopropylmethyl)-6-((5-methylthiazol-2-yl)amino)-1H-pyrrolo[3,2-c]pyridin-4-yl)-8-azabicyclo[3.2.1]oct-2-en-8-yl)prop-2-en-1-one] | ≤ 20 | ≤ 20 |  | 
C=CC(=O)N1CC=C(c2nc(Nc3ncc[nH]3)cc3c2ccn3C)CC1 [Example 40, 1-(4-(6-((1H-imidazol-2-yl)amino)-1-methyl-1H-pyrrolo[3,2-c]pyridin-4-yl)-3,6-dihydropyridin-1(2H)-yl)prop-2-en-1-one] |  |  | 100 to 500 | > 500
C=CC(=O)N1CC=C(c2nc(Nc3nnc(C)s3)cc3c2ccn3C(C)C)CC1 [Example 41, 1-(4-(1-isopropyl-6-((5-methyl-1,3,4-thiadiazol-2-yl)amino)-1H-pyrrolo[3,2-c]pyridin-4-yl)-3,6-dihydropyridin-1(2H)-yl)prop-2-en-1-one] |  |  | 20 to 100 | > 500
C=CC(=O)N1CC=C(c2nc(Nc3nc(C)cs3)cc3c2ccn3C(C)C)CC1 [Example 42, 1-(4-(1-isopropyl-6-((4-methylthiazol-2-yl)amino)-1H-pyrrolo[3,2-c]pyridin-4-yl)-3,6-dihydropyridin-1(2H)-yl)prop-2-en-1-one] |  |  | > 500 | > 500
C=CC(=O)N1CC=C(c2nc(Nc3ccncn3)cc3c2ccn3C(C)C)CC1 [Example 43, 1-(4-(1-isopropyl-6-(pyrimidin-4-ylamino)-1H-pyrrolo[3,2-c]pyridin-4-yl)-3,6-dihydropyridin-1(2H)-yl)prop-2-en-1-one] | ≤ 20 | 20 to 100 |  | 
C=CC(=O)N1CC=C(c2nc(Nc3cc(C)ncn3)cc3c2ccn3C(C)C)CC1 [Example 44, 1-(4-(1-isopropyl-6-((6-methylpyrimidin-4-yl)amino)-1H-pyrrolo[3,2-c]pyridin-4-yl)-3,6-dihydropyridin-1(2H)-yl)prop-2-en-1-one] | 20 to 100 | 100 to 500 |  | 
C=CC(=O)N1CC=C(c2nc(Nc3cc(C(F)(F)F)ncn3)cc3c2ccn3C(C)C)CC1 [Example 45, 1-(4-(1-isopropyl-6-((6-(trifluoromethyl)pyrimidin-4-yl)amino)-1H-pyrrolo[3,2-c]pyridin-4-yl)-3,6-dihydropyridin-1(2H)-yl)prop-2-en-1-one] | 20 to 100 | 100 to 500 |  | 
C=CC(=O)N1CC=C(c2nc(Nc3cc(OC)ncn3)cc3c2ccn3C(C)C)CC1 [Example 46, 1-(4-(1-isopropyl-6-((6-methoxypyrimidin-4-yl)amino)-1H-pyrrolo[3,2-c]pyridin-4-yl)-3,6-dihydropyridin-1(2H)-yl)prop-2-en-1-one] | ≤ 20 | 100 to 500 |  | 
C=CC(=O)N1CC=C(c2nc(Nc3cc(F)ccn3)cc3c2ccn3C(C)C)CC1 [Example 47, 1-(4-(6-((4-fluoropyridin-2-yl)amino)-1-isopropyl-1H-pyrrolo[3,2-c]pyridin-4-yl)-3,6-dihydropyridin-1(2H)-yl)prop-2-en-1-one] | ≤ 20 | 20 to 100 |  | 
C=CC(=O)N1CC=C(c2nc(Nc3cc(C(F)(F)F)ccn3)cc3c2ccn3C(C)C)CC1 [Example 48, 1-(4-(1-isopropyl-6-((4-(trifluoromethyl)pyridin-2-yl)amino)-1H-pyrrolo[3,2-c]pyridin-4-yl)-3,6-dihydropyridin-1(2H)-yl)prop-2-en-1-one] | 20 to 100 | 20 to 100 |  | 
C=CC(=O)N1CC=C(c2nc(Nc3cc(C)ccn3)cc3c2ccn3C(C)C)CC1 [Example 49, 1-(4-(1-isopropyl-6-((4-methylpyridin-2-yl)amino)-1H-pyrrolo[3,2-c]pyridin-4-yl)-3,6-dihydropyridin-1(2H)-yl)prop-2-en-1-one] | 100 to 500 | 100 to 500 | 20 to 100 | 20 to 100
C=CC(=O)Nc1cccc(-c2nc(Nc3ncc(C)s3)cc3c2ccn3C)c1 [Example 50, N-(3-(1-methyl-6-((5-methylthiazol-2-yl)amino)-1H-pyrrolo[3,2-c]pyridin-4-yl)phenyl)acrylamide] |  |  | ≤ 20 | 20 to 100
C=CC(=O)Nc1cccc(-c2nc(Nc3ncc(C)s3)cc3c2ccn3C)c1F [Example 51, N-(2-fluoro-3-(1-methyl-6-((5-methylthiazol-2-yl)amino)-1H-pyrrolo[3,2-c]pyridin-4-yl)phenyl)acrylamide] |  |  | ≤ 20 | ≤ 20
C=CC(=O)Nc1cccc(-c2nc(Nc3ncc(C)s3)cc3c2ccn3C)c1OC [Example 52, N-(2-methoxy-3-(1-methyl-6-((5-methylthiazol-2-yl)amino)-1H-pyrrolo[3,2-c]pyridin-4-yl)phenyl)acrylamide] |  |  | ≤ 20 | ≤ 20
C=CC(=O)Nc1cc(C)cc(-c2nc(Nc3ncc(C)s3)cc3c2ccn3C)c1 [Example 53, N-(3-methyl-5-(1-methyl-6-((5-methylthiazol-2-yl)amino)-1H-pyrrolo[3,2-c]pyridin-4-yl)phenyl)acrylamide] |  |  | ≤ 20 | 100 to 500
C=CC(=O)Nc1cc(-c2nc(Nc3ncc(C)s3)cc3c2ccn3C)ccc1F [Example 54, N-(2-fluoro-5-(1-methyl-6-((5-methylthiazol-2-yl)amino)-1H-pyrrolo[3,2-c]pyridin-4-yl)phenyl)acrylamide] |  |  | ≤ 20 | 20 to 100
C=CC(=O)Nc1cc(-c2nc(Nc3ncc(C)s3)cc3c2ccn3C)ccc1C [Example 55, N-(2-methyl-5-(1-methyl-6-((5-methylthiazol-2-yl)amino)-1H-pyrrolo[3,2-c]pyridin-4-yl)phenyl)acrylamide] |  |  | ≤ 20 | ≤ 20
C=CC(=O)Nc1c(C)ccc(-c2nc(Nc3ncc(C)s3)cc3c2ccn3C)c1C [Example 56, N-(2,6-dimethyl-3-(1-methyl-6-((5-methylthiazol-2-yl)amino)-1H-pyrrolo[3,2-c]pyridin-4-yl)phenyl)acrylamide] | ≤ 20 | > 500 | ≤ 20 | ≤ 20
C=CC(=O)Nc1c(F)ccc(-c2nc(Nc3ncc(C)s3)cc3c2ccn3C)c1F [Example 57, N-(2,6-difluoro-3-(1-methyl-6-((5-methylthiazol-2-yl)amino)-1H-pyrrolo[3,2-c]pyridin-4-yl)phenyl)acrylamide] |  |  | ≤ 20 | ≤ 20
C=CC(=O)Nc1cccc(-c2nc(Nc3ncc(C)s3)cc3c2ccn3C(C)C)c1C [Example 58, N-(3-(1-isopropyl-6-((5-methylthiazol-2-yl)amino)-1H-pyrrolo[3,2-c]pyridin-4-yl)-2-methylphenyl)acrylamide] | ≤ 20 | ≤ 20 |  | 
C=CC(=O)Nc1ccc(F)c(-c2nc(Nc3ncc(C)s3)cc3c2ccn3C(C)C)c1 [Example 59, N-(4-fluoro-3-(1-isopropyl-6-((5-methylthiazol-2-yl)amino)-1H-pyrrolo[3,2-c]pyridin-4-yl)phenyl)acrylamide] | ≤ 20 | ≤ 20 |  | 
C=CC(=O)Nc1cc(-c2nc(Nc3ncc(C)s3)cc3c2ccn3C(C)C)c(F)cc1F [Example 60, N-(2,4-difluoro-5-(1-isopropyl-6-((5-methzylthiazol-2-yl)amino)-1H-pyrrolo[3,2-c]pyridin-4-yl)phenyl)acrylamide] | ≤ 20 | ≤ 20 | ≤ 20 | ≤ 20
C=CC(=O)Nc1ccc(F)c(-c2nc(Nc3ncc(C)s3)cc3c2ccn3CC2CC2)c1 [Example 61, N-(3-(1-(cyclopropylmethyl)-6-((5-methylthiazol-2-yl)amino)-1H-pyrrolo[3,2-c]pyridin-4-yl)-4-fluorophenyl)acrylamide] |  |  | ≤ 20 | ≤ 20
